In patent US20230382940A1, “ANTIVIRAL COMPOUNDS AND METHODS OF MAKING AND USING THE SAME” (Gilead Sciences, Inc., priority 2022, published 2023):

Experiments:
[1] = GI S9 stability, human, Example Y; format: in vitro ADME; conditions: pooled intestinal S9 fractions; human intestinal S9, 1.0 mg/mL protein, 2 μM compound, pH 7.4; read-out: GIS9 Human T½ (per Ex. Y)
Protocol: (§1) Example Y: GI S9 Stability Data
(§2) Stock solutions of test compounds in dimethyl sulfoxide (DMSO) having a final concentration of 10 mM were prepared and used in all experiments. Sekisui XenoTech (Kansas City, KS) provided pooled intestinal S9 fractions. All other chemicals were purchased from Sigma-Aldrich (St. Louis, MO) or VWR (West Chester, PA). Internal Standard/Quench (IS/Q) used to stop reactions was 100 nM labetalol in (by volume) methanol (10%) and acetonitrile (90%).
(§3) Stability in Intestinal S9 Fractions: Duplicate aliquots of test compound or positive control substrate were added to S9 stock diluted with phosphate buffered saline (137 mM NaCl, 2.7 mM KCl, 10 mM phosphate buffer), pH 7.4, to obtain a protein concentration of 1.0 mg/mL. The metabolic reactions were initiated by the addition of the substrates to the S9 reaction mixture to a final concentration of 2 μM. At 0, 10, 20, 30, 60 and 120 min, 25 μL aliquots of the reaction mixture were transferred to plates containing 225 μl of IS/Q solution. After quenching, the plates were centrifuged at 3000×g for 30 minutes. 150 μL aliquots of each supernatant were dried down then reconstituted with 300 μL water. Aliquots (10 μL) of the prepared samples were analyzed on a Thermo Q-Exactive mass spectrometer as described below.
(§4) Liquid Chromatography—Mass Spectrometry: Quantification of test compounds and control substrate was performed by analyte/internal standard peak area ratio (PAR) values measured on a Thermo Q-Exactive mass spectrometer coupled to a Dionex UltiMate 3000 HPLC with a Leap Technologies HTC PAL autosampler. The column used for analysis was a Waters Acquity BEH C18 (1.7 μm particle size, 2.1×50 mm). Mobile phase A consisted of 0.1% (v/v) formic acid in water. Mobile phase B consisted of 0.1% (v/v) formic acid in acetonitrile. Elution of analytes was achieved by a series of linear gradients varying the proportions of A and B. The mass spectrometer was calibrated on a weekly basis and mass tolerance of 5 ppm was used.
(§5) Metabolic stabilities in S9 fractions were determined by measuring the rates of disappearance of test compound and positive control substrate.
(§6) Data (% of substrate remaining) were plotted on a semi-log scale and fitted using an exponential decline model:
(§7) Ct=C0×e^−ln2/T1/2×t • Where Ct—% of substrate remaining at time=t; C0—% of substrate remaining at time=0; t—time; T1/2—half-life. • The Half-life (T1/2) is determined by the following equation: […]
(§8) Assuming a first-order reaction, the slope (k) is extrapolated from the aforementioned plotted data.

[2] = GI S9 stability, rat, Example Y; format: in vitro ADME; conditions: pooled intestinal S9 fractions; rat intestinal S9, 1.0 mg/mL protein, 2 μM compound, pH 7.4; read-out: GIS9 Rat T½ (per Ex. Y)
Protocol: as §1, §2, §3, §4, §5, §6, §7, §8

[3] = test system: Respiratory syncytial virus recombinant with luciferase (RSV-Luc5); experiment: NHBE RSV-Luc5 384-well assay (EC50 RSVFLUC NHBE-384 v2), Example W; format: cell-based; conditions: human respiratory syncytial virus, 72 h, read-out: EC50 RSV FLUC NHBE 384 V2 (per Ex. W)
Source text: Example W: NHBE RSV-Luc5 384-Well Assay (EC50 RSVFLUC NHBE-384 v2)
Normal Human Bronchial Epithelial (NHBE) cells were purchased from Lonza (Walkersville, MD Cat #CC2540) and maintained in BEGM Bronchial Epithelial Cell Growth Medium BulletKit (Lonza CC-3170).
Cells were thawed, expanded, and were used for experiments at passage 2. Respiratory syncytial virus recombinant with luciferase (RSV-Luc5) (≥1×10^7 Infectious Units/mL (IU/mL) determined by TCID50) was purchased from Microbiologics (Saint Cloud, MN). Viral replication was determined in NHBE cells in the following manner.
Compounds are prepared in 100% DMSO in 384-well polypropylene plates (Greiner, Monroe, NC, Cat #784201) with 8 compounds per plate in grouped replicates of 4 at 10 serially diluted concentrations (1:3). The serially diluted compounds were transferred to low dead volume Echo plates (Labcyte, Sunnyvale, CA, Cat #LP-0200).
The test compounds were spotted to 384-well assay plates (Greiner, Monroe, NC, Cat #781091) at 200 nL per well using an Echo acoustic dispenser (Labcyte, Sunnyvale, CA). NHBE cells were harvested and suspended in BEGM Bronchial Epithelial Cell Growth Medium BulletKit and seeded to the pre-spotted assay plates at 5,000 cells per well in 30 μL. RSV-Luc5 virus was diluted in BEGM Bronchial Epithelial Cell Growth Medium BulletKit at 500,000 Infectious Units (IU) per mL and 10 μL per well was added to the assay plates containing cells and compounds, for an MOI of 1. The assay plates were incubated for 3 days at 37° C. and 5% CO2. At the end of incubation, One-Glo reagent (Promega, Madison, WI, Cat #E6120) was prepared. The assay plates and One-Glo reagent were equilibrated to room temperature for at least 15 minutes. 40 μL per well of One-Glo reagent was added and the plates were incubated at room temperature for 15 minutes before reading the luminescence signal on an EnVision multimode plate reader (Perkin Elmer, Waltham, MA). Remdesivir was used as positive control and DMSO was used as negative control. Values were normalized to the positive and negative controls (as 0% and 100% replication, respectively) and data was fitted using non-linear regression analysis by Gilead's dose response tool. The EC50 value for each compound was defined as the concentration reducing the viral replication by 50%.

| SMILES | half-life at 2 μM [1] | half-life at 2 μM [2] | EC50 [3] |
| --- | --- | --- | --- |
| CCCCCCOC(=O)OC[C@@]1(C#N)O[C@@H](c2ccc3c(N)ncnn23)[C@H](O)[C@@H]1O [Compound 19, ((2R,3S,4R,5S)-5-(4-aminopyrrolo[2,1-f][1,2,4]triazin-7-yl)-2-cyano-3,4-dihydroxytetrahydrofuran-2-yl)methyl hexyl carbonate] | 11 min | 2 min | 7.03 µM |
| CCCCCOC(=O)OC[C@@]1(C#N)O[C@@H](c2ccc3c(N)ncnn23)[C@H](O)[C@@H]1O [Compound 20, ((2R,3S,4R,5S)-5-(4-aminopyrrolo[2,1-f][1,2,4]triazin-7-yl)-2-cyano-3,4-dihydroxytetrahydrofuran-2-yl)methyl pentyl carbonate] | 16 min | 3 min | 7.51 µM |
| N#C[C@]1(COC(=O)OC2CCCCC2)O[C@@H](c2ccc3c(N)ncnn23)[C@H](O)[C@@H]1O [Compound 21, ((2R,3S,4R,5S)-5-(4-aminopyrrolo[2,1-f][1,2,4]triazin-7-yl)-2-cyano-3,4-dihydroxytetrahydrofuran-2-yl)methyl cyclohexyl carbonate] | 44 min | 8 min | 7 µM |
| CCOC(=O)OC[C@@]1(C#N)O[C@@H](c2ccc3c(N)ncnn23)[C@H](O)[C@@H]1O [Compound 22, ((2R,3S,4R,5S)-5-(4-aminopyrrolo[2,1-f][1,2,4]triazin-7-yl)-2-cyano-3,4-dihydroxytetrahydrofuran-2-yl)methyl ethyl carbonate] | 55 min | 14 min | 6.62 µM |
| N#C[C@]1(COC(=O)OC2CC2)O[C@@H](c2ccc3c(N)ncnn23)[C@H](O)[C@@H]1O [Compound 23, ((2R,3S,4R,5S)-5-(4-aminopyrrolo[2,1-f][1,2,4]triazin-7-yl)-2-cyano-3,4-dihydroxytetrahydrofuran-2-yl)methyl cyclopropyl carbonate] | 19 min | 9 min | 7.79 µM |
| N#C[C@]1(COC(=O)O[C@@H]2CCOC2)O[C@@H](c2ccc3c(N)ncnn23)[C@H](O)[C@@H]1O [Compound 24, ((2R,3S,4R,5S)-5-(4-aminopyrrolo[2,1-f][1,2,4]triazin-7-yl)-2-cyano-3,4-dihydroxytetrahydrofuran-2-yl)methyl ((R)-tetrahydrofuran-3-yl) carbonate] | 178 min | 47 min | 7.33 µM |
| CC[C@H](C)COC(=O)OC[C@@]1(C#N)O[C@@H](c2ccc3c(N)ncnn23)[C@H](O)[C@@H]1O [Compound 28, ((2R,3S,4R,5S)-5-(4-aminopyrrolo[2,1-f][1,2,4]triazin-7-yl)-2-cyano-3,4-dihydroxytetrahydrofuran-2-yl)methyl ((S)-2-methylbutyl) carbonate] | 18 min | 4 min | 9.4 µM |
| N#C[C@]1(COC(=O)OCc2ccccc2)O[C@@H](c2ccc3c(N)ncnn23)[C@H](O)[C@@H]1O [Compound 29, ((2R,3S,4R,5S)-5-(4-aminopyrrolo[2,1-f][1,2,4]triazin-7-yl)-2-cyano-3,4-dihydroxytetrahydrofuran-2-yl)methyl benzyl carbonate] | 15 min | 3 min | 10.9 µM |
| N#C[C@]1(COC(=O)OCC2CCCC2)O[C@@H](c2ccc3c(N)ncnn23)[C@H](O)[C@@H]1O [Compound 30, ((2R,3S,4R,5S)-5-(4-aminopyrrolo[2,1-f][1,2,4]triazin-7-yl)-2-cyano-3,4-dihydroxytetrahydrofuran-2-yl)methyl (cyclopentylmethyl) carbonate] | 15 min | 3 min | 7.54 µM |
| CCC(CC)COC(=O)OC[C@@]1(C#N)O[C@@H](c2ccc3c(N)ncnn23)[C@H](O)[C@@H]1O [Compound 31, ((2R,3S,4R,5S)-5-(4-aminopyrrolo[2,1-f][1,2,4]triazin-7-yl)-2-cyano-3,4-dihydroxytetrahydrofuran-2-yl)methyl (2-ethylbutyl) carbonate] | 18 min | 3 min | 8.65 µM |
| N#C[C@]1(COC(=O)OCC2CC2)O[C@@H](c2ccc3c(N)ncnn23)[C@H](O)[C@@H]1O [Compound 32, ((2R,3S,4R,5S)-5-(4-aminopyrrolo[2,1-f][1,2,4]triazin-7-yl)-2-cyano-3,4-dihydroxytetrahydrofuran-2-yl)methyl (cyclopropylmethyl) carbonate] | 33 min | 8 min | 7.12 µM |
| N#C[C@]1(COC(=O)O[C@H]2CCOC2)O[C@@H](c2ccc3c(N)ncnn23)[C@H](O)[C@@H]1O [Compound 33, ((2R,3S,4R,5S)-5-(4-aminopyrrolo[2,1-f][1,2,4]triazin-7-yl)-2-cyano-3,4-dihydroxytetrahydrofuran-2-yl)methyl ((S)-tetrahydrofuran-3-yl) carbonate] | 250 min | 58 min | 8.01 µM |
| CCCOCCOC(=O)OC[C@@]1(C#N)O[C@@H](c2ccc3c(N)ncnn23)[C@H](O)[C@@H]1O [Compound 34, ((2R,3S,4R,5S)-5-(4-aminopyrrolo[2,1-f][1,2,4]triazin-7-yl)-2-cyano-3,4-dihydroxytetrahydrofuran-2-yl)methyl (2-propoxyethyl) carbonate] | 108 min | 11 min | 6.39 µM |
| CC(C)(C)CCOC(=O)OC[C@@]1(C#N)O[C@@H](c2ccc3c(N)ncnn23)[C@H](O)[C@@H]1O [Compound 35, ((2R,3S,4R,5S)-5-(4-aminopyrrolo[2,1-f][1,2,4]triazin-7-yl)-2-cyano-3,4-dihydroxytetrahydrofuran-2-yl)methyl (3,3-dimethylbutyl) carbonate] | 19 min | 4 min | 5.78 µM |
| N#C[C@]1(COC(=O)OC2CC3(CCC3)C2)O[C@@H](c2ccc3c(N)ncnn23)[C@H](O)[C@@H]1O [Compound 36, ((2R,3S,4R,5S)-5-(4-aminopyrrolo[2,1-f][1,2,4]triazin-7-yl)-2-cyano-3,4-dihydroxytetrahydrofuran-2-yl)methyl spiro[3.3]heptan-2-yl carbonate] | 14 min | 3 min | 8.42 µM |
